These results are taken from ChEMBL document CHEMBL3507680, “University of Dundee, Gates Library screen for HepG2 cell viability”.

The nature of this data set: Human HepG2 cell viability assay in 384 well format. It is filed as toxicity, cell-based. Set-up: dose 125 nL, time 70.5 hour; cytotoxicity at 70.5 h: concentration not given beside the values. The settings on record: HepG2 cells, read-out: Inhibition.
For `O=C([C@@H]1CCO[C@@H]2CCN(Cc3ccco3)C[C@H]21)N1CCCCO1`, the cytotoxicity at 70.5 h is -9.33%.
As to `CN(C)C(=O)[C@@H]1CCO[C@@H]2CCN(c3ncccn3)C[C@H]21`, the cytotoxicity at 70.5 h was -15.3%.
The value for `COCC1CN(Cc2c(C)noc2C)Cc2cn(C)nc21` (centres undefined) was 10.9%; that for `CNC(=O)c1nc2c(s1)CCN(C(=O)c1cccc(OC)c1)CC2` was -10%; that for `Cc1nc(CN2CCOC3(CCCN(c4nccs4)C3)C2)cs1` (centres undefined) was 4.12%.
The value for `CC(=O)NCC(=O)N1Cc2ccnn2CC(COCCN(C)C)C1` (centres undefined) was -6.24%; that for `Cc1ccc(C(=O)N2CCC3(CC2)CC(c2ccccc2)C(=O)N3)o1` (centres undefined) was -5.53%; that for `c1ccc(CN2CCOC3(CCCN(c4nccs4)C3)C2)cc1` (centres undefined) was -7.62%.
Next, `Cn1cc(CN2CCN3C[C@H](Oc4cccnc4)C[C@H]3C2)cn1`: -1.85%.
As for `Cn1cccc1C(=O)N1CC[C@H]2[C@H](CO[C@H]2CNS(C)(=O)=O)C1`, the cytotoxicity at 70.5 h is -4.35%.
Next, `Cc1oncc1C(=O)N1CC[C@H]2[C@H](CO[C@@H]2CNS(C)(=O)=O)C1`: -5.2%; `CS(=O)(=O)NC[C@@H]1OC[C@H]2CN(C(=O)c3ccccc3)CC[C@H]21`: 15.9%; `O=C1CCCN1Cc1ncn2c1CN(S(=O)(=O)c1cccs1)CCC2`: -1.28%.
The value for `CN(C)CCN1CCOCC2(CCCN(C(=O)c3cccc(O)c3)C2)C1` (centres undefined) was -2.03%; that for `Cc1occc1C(=O)N1CC[C@@H]2[C@@H](CO[C@H]2CNS(C)(=O)=O)C1` was -1.5%.
Next, `O=C(NC1CC1)[C@@H]1CCO[C@@H]2CCN(C3CCCC3)C[C@H]21`: -0.698%; `Cc1nc([C@H]2C[C@@H]3CCN(Cc4cnn(C)c4)C[C@H]3O2)sc1C`: -1.71%.
Consider `COCCN1CCC2(CCCN(C(=O)c3ccoc3C)C2)C1=O` (centres undefined), for which the cytotoxicity at 70.5 h was -1.73%.
Next, `CC(C)N(C)C(=O)C1=NOC2(CCN(C(=O)c3ccncc3)C2)C1` (centres undefined): -8.56%; `Cc1noc([C@H]2C[C@H]3OCC[C@H]3N(S(=O)(=O)C3CC3)C2)n1`: -11.6%.
Next, `c1coc(CN2Cc3nccn3CC(Cn3cncn3)C2)c1` (centres undefined): 1.12%; `COC[C@@]12CCO[C@@H]1CCN(C(=O)COc1ccccc1OC)C2`: -11.3%; `CCN1CC2(CC1=O)CN(C(=O)c1ccco1)CCN(C(=O)N(C)C)C2` (centres undefined): -5.37%.
The value for `Cc1cccc(CN2C[C@@H]3COC[C@]3(COc3ccc(C#N)cn3)C2)n1` was -0.115%.
Take `CCS(=O)(=O)N1CCC(c2nc3ccc(-c4ccccc4)cn3n2)CC1`: the cytotoxicity at 70.5 h is -5.21%.
Next, `Cc1nc(CN2C(=O)C[C@@H]3[C@@H]2CCN3C(=O)C2CCOCC2)cs1`: -8.18%; `c1cncc(OCC2CN(Cc3ccco3)Cc3nccn3C2)c1` (centres undefined): 21.3%; `CCOCC(=O)N1C[C@@H]2COC[C@H](c3nc(C)no3)[C@@H]2C1`: -2.34%.
The value for `Cc1noc([C@@H]2CC[C@@H]3[C@@H](CCN3S(=O)(=O)C3CC3)O2)n1` was 2.67%.
The value for `CN(C)C(=O)CO[C@@H]1CC[C@H]2[C@H]1OCCN2C(=O)C1CCOCC1` was -3.79%.
Turning to `CCn1nnc2c1C(COC)CN(C(=O)COc1ccccc1)C2` (centres undefined), the cytotoxicity at 70.5 h was 0.105%.
Next, `COCC1c2c(cnn2C)CCN1Cc1ccoc1` (centres undefined): -3.89%; `C[C@H]1C[C@@H]2CCN(C(=O)c3ccncn3)C[C@H]2O1`: -0.838%; `COCC1COCCC12CCN(C(=O)CCOc1ccccc1)CC2` (centres undefined): -2.28%.
The value for `Cn1cc(-c2cnc(N3CCCC3)nc2)cc1C(=O)O` was 1.36%.
Next, `CCO[C@@H]1CC[C@H]2[C@H]1OCCN2C(=O)C1CCOCC1`: -2.08%; `CC(C)NC(=O)C1CN(C(=O)c2ccc(F)cc2)CC12CCOCC2` (centres undefined): 23.6%; `CC(C)NC(=O)N1CCc2c(CNc3ncccn3)cncc2C1`: -3.35%.
`O=C(N[C@H]1CN[C@H]2CCCO[C@H]21)c1cccnc1`: the cytotoxicity at 70.5 h is -10.1%.
The value for `COc1ccc(CN2CCn3cc(CNC(=O)C4CCC4)nc3C2)cc1` was 7.38%; that for `Cn1nnc2c1CCN(C(=O)C1CC1)C2COCCN1CCCC1` (centres undefined) was -3.87%.
Next, `Cc1ccc(CN2CCn3c(CNC(=O)c4cccn4C)cnc3C2)s1`: -10.3%.
Take `Cc1noc(C)c1CN1CCCC2(C1)CN(c1nccs1)CCO2` (centres undefined): the cytotoxicity at 70.5 h is -2.38%.
Next, `Cc1ccc(CN2C[C@@H]3CCCO[C@@H]3[C@H](NS(C)(=O)=O)C2)o1`: -9.45%.
The value for `Cc1noc(C)c1CN1CCOC2(CCCN(c3nncs3)C2)C1` (centres undefined) was -4.97%.
Next, `Cc1noc(C)c1CN1CCOC2(CCCN(c3ncccn3)C2)C1` (centres undefined): -5.7%.
For the molecule `CC(=O)N1CC(=O)N(c2ccsc2)CC12CCN(Cc1ccccn1)C2` (centres undefined), the cytotoxicity at 70.5 h is -6.8%.
Next, `Cc1noc(C)c1CN1C[C@@H]2CCCO[C@@H]2[C@H](NS(C)(=O)=O)C1`: -9.8%.
Next, `O=C(c1ccoc1)N1CCO[C@]2(CCC[C@@H]2COCc2cccnc2)C1`: -1.92%; `COCC1CC2(CCN(Cc3nccn3C)CC2)CN1c1ncccn1` (centres undefined): -0.457%.
Next, `CN1CCOCC2(CCCN(C(=O)c3cn(C)cn3)C2)C1` (centres undefined): 0.515%; `COC[C@H]1CNC(=O)[C@@H]2CCN(Cc3ccc(F)cc3)CC[C@H]12`: -1.94%.
For the molecule `COCC1CN(Cc2ccc(F)cc2)Cc2nnn(CC3CC3)c21` (centres undefined), the cytotoxicity at 70.5 h was found to be 0.526%.
The value for `CN(C)C(=O)CO[C@H]1CN(Cc2cccc(F)c2)[C@@H]2CCCO[C@H]12` was -0.497%; that for `COCCN1CC[C@@H]2O[C@@H](COCC(=O)N3CCCC3)CC[C@@H]21` was -3.26%.
Next, `Cc1ccc(CC(=O)N2Cc3nccn3CC(CN(C)C)C2)cc1` (centres undefined): -13.3%; `c1ccc(N2CCCC3(COCCN(c4nccs4)C3)C2)nc1` (centres undefined): -0.38%; `CC1N(CC2CC2)C(=O)COC12CCN(Cc1nccs1)CC2` (centres undefined): -8.15%.
The value for `Cc1noc([C@@H]2C[C@H]3OCC[C@H]3N(S(=O)(=O)c3cccnc3)C2)n1` was -8.05%; that for `c1csc(CN2Cc3nccn3CC(Cn3cncn3)C2)n1` (centres undefined) was -7.09%; that for `CCN1CC2(CC1=O)CN(Cc1ccco1)CCN(C(=O)N(C)C)C2` (centres undefined) was -8.06%.
Take `O=C(Cc1cccs1)N1C[C@@H]2OCCN(CC3CCCC3)[C@@H]2C1`: the cytotoxicity at 70.5 h was -3.16%.
The value for `CCc1ccc(CN2CC[C@H]3C[C@H](c4nnc(C)[nH]4)O[C@@H]3C2)o1` was -1.93%; that for `Cn1cc(C(=O)NC[C@@H]2OC[C@H]3CN(Cc4ccco4)CC[C@H]32)cn1` was -7.09%; that for `COCCO[C@@H]1CCN(C(=O)c2ccc(C)o2)[C@@H]1Cc1cccnc1` was 4.05%.
Take `Cc1noc([C@@H]2CC[C@@H]3[C@@H](CCN3S(=O)(=O)c3cccnc3)O2)n1`: the cytotoxicity at 70.5 h is -4.36%.
As to `CC(C)NC(=O)N1CCN(CC2CC2)CC2(CC(=O)N(C)C2)C1` (centres undefined), the cytotoxicity at 70.5 h is -4.82%.
`Fc1cccc(N2C[C@H]3CCN(c4cccnc4)C[C@H]3C2)c1`: the cytotoxicity at 70.5 h is -5.68%.
The value for `CCCS(=O)(=O)N1CCC2(CN(c3ccsc3)C(=O)CN2C)C1` (centres undefined) was -3.38%; that for `O=C(NCc1cccs1)[C@H]1CC[C@@H]2[C@@H](CCN2c2ncccn2)O1` was 2.87%; that for `CC1=N[C@@]2(CC[C@@H]3CN(CC(=O)N(C)C)C[C@@H]32)C(=O)N1CC(C)C` was 52.3%.
The value for `Cc1ccc(CN2CCCC3(COCCN(Cc4c[nH]nn4)C3)C2)s1` (centres undefined) was 19.3%.
Next, `COCC(=O)N1Cc2ccnn2CC(COCCN(C)C)C1` (centres undefined): -3.25%; `Cn1cc(CN2CCCC3(COCCN(Cc4c[nH]nn4)C3)C2)cn1` (centres undefined): 0.634%.
As to `CC(=O)N1C[C@H]2CCCC(N3CCN(c4ncccn4)CC3)[C@H]2C1` (some centres undefined), the cytotoxicity at 70.5 h was determined as 11.4%.
Next, `CN(C)CCN1CCOCC2(CCCN(C(=O)c3cccn3C)C2)C1` (centres undefined): 0.0252%; `CN(C)CCN1CCOCC2(CCCN(C(=O)c3ccccc3)C2)C1` (centres undefined): -2.82%; `Cc1ccc(O[C@@H]2C[C@H]3CN(Cc4nccn4C)CCN3C2)cc1`: -4.55%.
The value for `O=C(CC1CC1)N[C@@H]1CN(Cc2cccnc2)C[C@@H]2CCCO[C@@H]21` was -4.07%; that for `COCC1CC2(CCN(CC3CC3)CC2)CN1c1ncccn1` (centres undefined) was -3.59%; that for `c1cc2nc(C3CCN(CC4CC4)CC3)nn2cc1N1CCCC1` was -4.49%.
`CN(C)Cc1cnc2n1CCN(Cc1ccsc1)CC2`: the cytotoxicity at 70.5 h was -2.43%.
As to `Cc1cccc(COC[C@@H]2CC[C@H]3[C@H](CCN3Cc3ccco3)O2)n1`, the cytotoxicity at 70.5 h is -6.18%.
Next, `Cc1nnc(N2CCCC3(CN(Cc4ccc(C)s4)CCO3)C2)o1` (centres undefined): -8.9%; `c1cncc(OC[C@]23COC[C@H]2CN(Cc2cccs2)C3)c1`: -7.3%; `COCC1c2c(cnn2CC2CCOCC2)CCN1Cc1ccoc1` (centres undefined): 3.09%.
Next, `COc1ccc(CN2C[C@@H]3COC[C@]3(COc3cccnc3)C2)cc1`: -7.11%; `Cn1ncc2c1CN(Cc1cccnc1)CC2COCC1CC1` (centres undefined): -2.46%; `CN1CC(=O)N(c2ccccc2)CC12CCN(Cc1cccnc1)C2` (centres undefined): -11.3%.
